Source: patent US9655887B2, “Pharmaceutical composition and the use thereof, and application regime of said pharmaceutical composition for on-demand contraception” (BAYER PHARMA AKTIENGESELLSCHAFT, priority 2013, dated 2017)

Biological target: EP2 subtype of the human PGE2 receptor (hEP2 receptor) (Homo sapiens, UniProt P43116)
Experiment: cAMP antagonism test, human prostaglandin E2 (subtype EP2) receptor signal
Assay type: cell-based
Procedure, shortened: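 Cells (625000 cells/ml, mixed with cAMP-d2) were preincubated 20 min at RT with compound ([…]). They were then stimulated 60 min at RT with a 3× PGE2 solution (1.5 nM) in PBS-IBMX and lysed for 20 min. cAMP was read by HTRF as the 665/620 nm ratio ×10000, with antagonism seen as a rise in FRET signal.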

EP2 subtype of the human PGE2 receptor (hEP2 receptor), sequence (P43116 whole entry): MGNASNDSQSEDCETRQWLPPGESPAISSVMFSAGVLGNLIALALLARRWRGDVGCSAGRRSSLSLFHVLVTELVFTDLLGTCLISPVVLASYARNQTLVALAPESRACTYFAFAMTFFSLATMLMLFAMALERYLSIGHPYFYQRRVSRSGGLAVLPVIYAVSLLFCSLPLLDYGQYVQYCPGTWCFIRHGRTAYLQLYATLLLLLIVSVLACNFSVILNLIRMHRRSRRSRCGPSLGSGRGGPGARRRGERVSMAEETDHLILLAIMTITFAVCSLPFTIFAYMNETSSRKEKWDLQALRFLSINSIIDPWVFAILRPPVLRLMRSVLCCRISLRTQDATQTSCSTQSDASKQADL

IC50 [nM] | SMILES
> 50 | COCCNC(=O)c1ccc2nn(CC3CCN(C(=O)c4ccc(-c5cncc(F)c5)cc4)CC3)cc2c1C [Example E199, 2-({1-[4-(5-fluoropyridin-3-yl)benzoyl]piperidin-4-yl}methyl)-N-(2-methoxyethyl)-4-methyl-2H-indazole-5-carboxamide]
> 50 | COCCNC(=O)c1ccc2nn(CC3CN(C(=O)c4ccc(C5CC5)cc4)C3)cc2c1C [Example E94, 2-{[1-(4-cyclopropylbenzoyl)azetidin-3-yl]methyl}-N-(2-methoxyethyl)-4-methyl-2H-indazole-5-carboxamide]
> 50 | COCCNC(=O)c1ccc2nn(CC3CCN(C(=O)c4ccc(-c5ccc(C)nc5)cc4)CC3)cc2c1C [Example E190, N-(2-methoxyethyl)-4-methyl-2-({1-[4-(6-methylpyridin-3-yl)benzoyl]piperidin-4-yl}methyl)-2H-indazole-5-carboxamide]
> 50 | COCCNC(=O)c1ccc2nn(CC3CCN(C(=O)c4ccc(OC(F)F)cc4F)CC3)cc2c1C [Example E38, 2-({1-[4-(difluoromethoxy)-2-fluorobenzoyl]piperidin-4-yl}methyl)-N-(2-methoxy-ethyl)-4-methyl-2H-indazole-5-carboxamide]
> 50 | COCCNC(=O)c1ccc2nn(CC3CCN(C(=O)c4ccc(-c5ccccc5C)cc4)CC3)cc2c1C [Example E48, N-(2-methoxyethyl)-4-methyl-2-({1-[(2′-methylbiphenyl-4-yl)carbonyl]piperidin-4-yl}-methyl)-2H-indazole-5-carboxamide]
> 50 | Cc1c(C(=O)NCCOC(C)C)ccc2nn(CC3CCN(C(=O)c4ccc(C(F)(F)F)cc4)CC3)cc12 [Example E74, N-(2-isopropoxyethyl)-4-methyl-2-({1-[4-(trifluoromethyl)benzoyl]piperidin-4-yl}-methyl)-2H-indazole-5-carboxamide]
> 50 | Cc1c(C(=O)NCCOCC(F)(F)F)ccc2nn(CC3CN(C(=O)c4ccc(Oc5ccc(C(F)(F)F)cc5)cc4)C3)cc12 [Example E113, 4-methyl-N-[2-(2,2,2-trifluoroethoxy)ethyl]-2-[(1-{4-[4-(trifluoromethyl)phenoxy]-benzoyl}azetidin-3-yl)methyl]-2H-indazole-5-carboxamide]
> 50 | COCCNC(=O)c1ccc2nn(CC3CN(C(=O)c4ccc(OC(F)(F)F)cc4)C3)cc2c1C [Example E89, N-(2-methoxyethyl)-4-methyl-2-({1-[4-(trifluoromethoxy)benzoyl]azetidin-3-yl}-methyl)-2H-indazole-5-carboxamide]
> 50 | COCCNC(=O)c1ccc2nn(CC3CCN(C(=O)c4ccc(-c5ccc(F)cc5)c(C)c4)CC3)cc2c1C [Example E203, 2-({1-[(4′-fluoro-2-methylbiphenyl-4-yl)carbonyl]piperidin-4-yl}methyl)-N-(2-methoxyethyl)-4-methyl-2H-indazole-5-carboxamide]
> 50 | COCCNC(=O)c1ccc2nn(CC3CCN(C(=O)c4ccc(-c5cncc(Cl)c5)cc4)CC3)cc2c1C [Example E198, 2-({1-[4-(5-chloropyridin-3-yl)benzoyl]piperidin-4-yl}methyl)-N-(2-methoxyethyl)-4-methyl-2H-indazole-5-carboxamide]
> 50 | COCCNC(=O)c1ccc2nn(CC3CCN(C(=O)c4ccc(OC)cc4F)CC3)cc2c1C [Example E7, 2-{[1-(2-fluoro-4-methoxybenzoyl)piperidin-4-yl]methyl}-N-(2-methoxyethyl)-4-methyl-2H-indazole-5-carboxamide]
> 50 | COCCNC(=O)c1ccc2nn(CC3CCN(C(=O)c4ccc(S(=O)(=O)C(F)(F)F)cc4)CC3)cc2c1C [Example E24, N-(2-methoxyethyl)-4-methyl-2-[(1-{4-[(trifluoromethyl)sulphonyl]benzoyl}piperidin-4-yl)methyl]-2H-indazole-5-carboxamide]
> 50 | COc1cc(F)ccc1-c1ccc(C(=O)N2CCC(Cn3cc4c(C)c(C(=O)NCC(F)(F)F)ccc4n3)CC2)cc1 [Example E143, 2-({1-[(4′-fluoro-2′-methoxybiphenyl-4-yl)carbonyl]piperidin-4-yl}methyl)-4-methyl-N-(2,2,2-trifluoroethyl)-2H-indazole-5-carboxamide]
> 50 | COCCNC(=O)c1ccc2nn(CC3CCN(C(=O)c4ccc(Oc5cccc(C(F)(F)F)c5)cc4)CC3)cc2c1C [Example E168, N-(2-methoxyethyl)-4-methyl-2-[(1-{4-[3-(trifluoromethyl)phenoxy]benzoyl}piperidin-4-yl)methyl]-2H-indazole-5-carboxamide]
> 50 | COCCNC(=O)c1ccc2nn(CC3CN(C(=O)c4ccc(-c5ccc(F)cc5)cc4)C3)cc2c1C [Example E108, 2-({1-[(4′-fluorobiphenyl-4-yl)carbonyl]azetidin-3-yl}methyl)-N-(2-methoxyethyl)-4-methyl-2H-indazole-5-carboxamide]
> 50 | COCCNC(=O)c1ccc2nn(CC3CCN(C(=O)c4ccc(-c5ccncc5)c(C)c4)CC3)cc2c1C [Example E206, N-(2-methoxyethyl)-4-methyl-2-({1-[3-methyl-4-(4-pyridyl)benzoyl]piperidin-4-yl}-methyl)-2H-indazole-5-carboxamide]
> 50 | COCCNC(=O)c1ccc2nn(CC3CCN(C(=O)c4ccc(S(F)(F)(F)(F)F)cc4)CC3)cc2c1C [Example E11, N-(2-methoxyethyl)-4-methyl-2-({1-[4-(pentafluoro-λ^6-sulphanyl)benzoyl]piperidin-4-yl}methyl)-2H-indazole-5-carboxamide]
> 50 | COCCNC(=O)c1ccc2nn(CC3CCN(C(=O)c4ccc(-c5ccccc5F)cc4)CC3)cc2c1C [Example E45, 2-({1-[(2′-fluorobiphenyl-4-yl)carbonyl]piperidin-4-yl}methyl)-N-(2-methoxyethyl)-4-methyl-2H-indazole-5-carboxamide]
> 50 | COCCNC(=O)c1ccc2nn(CC3CCN(C(=O)c4ccc(Oc5ccc(Cl)cn5)cc4)CC3)cc2c1C [Example E170, 2-[(1-{4-[(5-chloropyridin-2-yl)oxy]benzoyl}piperidin-4-yl)methyl]-N-(2-methoxy-ethyl)-4-methyl-2H-indazole-5-carboxamide]
> 50 | COc1ccc(-c2ccc(C(=O)N3CCC(Cn4cc5c(C)c(C(=O)NCC(F)(F)F)ccc5n4)CC3)cc2)c(C)c1 [Example E141, 2-({1-[(4′-methoxy-2′-methylbiphenyl-4-yl)carbonyl]piperidin-4-yl}methyl)-4-methyl-N-(2,2,2-trifluoroethyl)-2H-indazole-5-carboxamide]
> 50 | COCCNC(=O)c1ccc2nn(CC3CCN(C(=O)c4ccc(-c5ccc(F)cc5Cl)cc4)CC3)cc2c1C [Example E197, 2-({1-[(2′-chloro-4′-fluorobiphenyl-4-yl)carbonyl]piperidin-4-yl}methyl)-N-(2-methoxy-ethyl)-4-methyl-2H-indazole-5-carboxamide]

SMILES | IC50 [nM]
Cc1c(C(=O)NCCOC(C)(C)C)ccc2nn(CC3CCN(C(=O)c4ccc(Oc5ccc(C(F)(F)F)cc5)cc4)CC3)cc12 [Example E84, N-(2-tert-butoxyethyl)-4-methyl-2-[(1-{4-[4-(trifluoromethyl)phenoxy]benzoyl}-piperidin-4-yl)methyl]-2H-indazole-5-carboxamide] | > 50
